# Values quoted from earlier work in patent US20080108542A1, “Perfume Compositions” (priority 2005, published 2008).
# Settings: 25° C.; data from literature or estimation software
row,Compound,SVP (saturated vapour pressure) class
1,CC(C)CC1CCCC(C)(O)C1 (centres unmarked) [1-METHYL-3-(2-METHYLPROPYL)CYCLOHEXANOL],& (SVPs in the range of 25 to 125 micron Hg)
2,"CC1=CC(C)C(C=O)CC1 (centres unmarked) [2,4-DIMETHYL-3-CYCLOHEXENE-1-CARBOXALDEHYDE]",&& (SVPs greater than 125 micron Hg)
3,"CCCCC1OC(C)CC(C)(C)O1 (centres unmarked) [2-BUTYL-4,4,6-TRIMETHYL-1,3-DIOXAN]",&& (SVPs greater than 125 micron Hg)
4,CCCCCCC1CCCC1=O (centres unmarked) [2-HEXYL-CYCLOPENTANONE],& (SVPs in the range of 25 to 125 micron Hg)
5,"C=CCOC(=O)COCC(C)CC (centres unmarked) [2-METHYLBUTYLOXYACETIC ACID, 2-PROPENYL ESTER]",& (SVPs in the range of 25 to 125 micron Hg)
6,CCCCCCCCCC(C)C=O (centres unmarked) [2-METHYLUNDECANAL],& (SVPs in the range of 25 to 125 micron Hg)
7,CCCCCCCC1CCCO1 (centres unmarked) [2-N-HEPTYLTETRAHYDROFURAN],&& (SVPs greater than 125 micron Hg)
8,"COC1CC2CC1C1CC=CC21 (centres unmarked) [8-METHOXY-TRICYCLO[5.2.1.0{2,6}]DEC-3-ENE]",&& (SVPs greater than 125 micron Hg)
9,"CC/C=C/CC/C=C/C#N [(2E,6E)-NONA-2,6-DIENENITRILE]",& (SVPs in the range of 25 to 125 micron Hg)
10,CC1=CCC(C(C)(C)O)CC1 (stereo not drawn) [ALPHA-TERPINEOL],& (SVPs in the range of 25 to 125 micron Hg)
11,"CCOC(=O)C1=C(C)C=CCC1(C)C [ETHYL 2,6,6-TRIMETHYLCYCLOHEXA-1,3-DIENE-1-CARBOXYLATE]",& (SVPs in the range of 25 to 125 micron Hg)
12,CC(=O)OC1CCC(C(C)(C)C)CC1 (centres unmarked) [PARA TERT.BUTYL CYCLOHEXYL ACETATE],& (SVPs in the range of 25 to 125 micron Hg)
13,CCC(C)(O)CCCC(C)C (centres unmarked) [TETRAHYDROLINALOL],&& (SVPs greater than 125 micron Hg)
14,CCCCC/C=C/CCC=O [TRANS-4-DECENAL],&& (SVPs greater than 125 micron Hg)
